Experiment: recombinant barcode read abundance after kanamycin selection (control-corrected) (log10(CPM+1)); higher = more efficient recombination; sequences stand for … in AGTGCAGAGAAAATCGGCCAGTTTTCTCTGCCTGCAGTCCGCATGCCGT…AGATTTATGCAGCGGACTGCCTTTCTCCCAAAGTGATAAACCGGACAGTATCATGGACCGGTTTTCCCGGTAATCCGTATTTGCAAGGTTGGTTTCACT; site = the 11-nt target
Procedure, shortened: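 Oligos holding a promoter, target, barcode and the J23119-driven first 104 bases of the bridge RNA were Gibson-cloned into a vector that supplied the other 73 bp plus a T7-inducible recombinase. This library was co-electroporated with a donor plasmid into E. coli. Two replicates went on chloramphenicol/ampicillin LB agar (control) and two on chloramphenicol/ampicillin/kanamycin with 0.1 mM IPTG. Recombination efficiency is read from averaged, control-corrected barcode counts per million at recombinant junctions, reported as log10(CPM+1).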
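Also: IS621 recombinase and bridge RNA in Escherichia coli cells.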

Sequence | recombinant barcode read abundance (log10)
TCAATCCCTTGGGTTCTAACCTGTTGCCT (site TCTATCCCTAG) | 0.0124
TCACACACTTGGGTTCTAACCTGTTGCCT (site CTCAGACCTCA) | 0.0319
TCACACACTTGGGTTCTAACCTGTTGCCT (site TCACACACTAG) | 1.06
TCACCGCCTTGGGTTCTAACCTGTTGCCT (site ACACCGCCTAG) | 0.75
TCACCGCCTTGGGTTCTAACCTGTTGCCT (site CCACCGCCTAG) | 0.141
TCACCGCCTTGGGTTCTAACCTGTTGCCT (site GCACCGCCTAG) | 0.0186
TCACCGCCTTGGGTTCTAACCTGTTGCCT (site TCACCGCCTAG) | 0.172
TCACCTGCTTGGGTTCTAACCTGTTGCCT (site TCACATGCTAG) | 0.0199
TCACCTGCTTGGGTTCTAACCTGTTGCCT (site TCACCTGCTAG) | 0.961
TCACCTGCTTGGGTTCTAACCTGTTGCCT (site TCACGTGCTAG) | 0.192
TCACCTGCTTGGGTTCTAACCTGTTGCCT (site TCACTTGCTAG) | 0.0607
TCACGTCCTTGGGTTCTAACCTGTTGCGG (site TCACGTCCTCC) | 1.3
TCACGTCCTTGGGTTCTAACCTGTTGCGG (site TTACGTCCTCC) | 0.0483
TCACGTGCTTGGGTTCTAACCTGTTGCCT (site TCACATGCTAG) | 0.0819
TCACGTGCTTGGGTTCTAACCTGTTGCCT (site TCACCTGCTAG) | 0.105
TCACGTGCTTGGGTTCTAACCTGTTGCCT (site TCACGTGCTAG) | 0.563
TCACGTGCTTGGGTTCTAACCTGTTGCCT (site TCACTTGCTAG) | 0.121
TCACTCTCTTGGGTTCTAACCTGTTGCCT (site TAACTCTCTAG) | 0.111
TCACTCTCTTGGGTTCTAACCTGTTGCCT (site TCACTCTCTAG) | 1.22
TCACTCTCTTGGGTTCTAACCTGTTGCCT (site TGACTCTCTAG) | 0.0273
TCACTCTCTTGGGTTCTAACCTGTTGCCT (site TTACTCTCTAG) | 0.062
TCACTTCCTTGGGTTCTAACCTGTTGCCT (site TCACCTTCTAG) | 0.121
TCACTTCCTTGGGTTCTAACCTGTTGCCT (site TCACTTCCTAG) | 0.0238
TCACTTGCTTGGGTTCTAACCTGTTGCCT (site TCACATGCTAG) | 0.0105
TCACTTGCTTGGGTTCTAACCTGTTGCCT (site TCACCTGCTAG) | 0.0436
TCACTTGCTTGGGTTCTAACCTGTTGCCT (site TCACGTGCTAG) | 0.177

Sequence | recombinant barcode read abundance (log10)
TCACTTGCTTGGGTTCTAACCTGTTGCCT (site TCACTTGCTAG) | 0.215
TCAGAAGCTTGGGTTCTAACCTGTTGCCG (site ATGAGGCCTTA) | 0.022
TCAGAAGCTTGGGTTCTAACCTGTTGCCG (site TCAGAAGCTCG) | 0.689
TCAGCCTCTTGGGTTCTAACCTGTTGCCT (site CTGTGTCCTCC) | 0.11
TCAGCCTCTTGGGTTCTAACCTGTTGCCT (site TCAGCCTCTAG) | 1.72
TCAGCGACTTGGGTTCTAACCTGTTGCCT (site TCAGCGACTAG) | 0.481
TCAGCGACTTGGGTTCTAACCTGTTGCCT (site TCCGCGACTAG) | 0.139
TCAGCGACTTGGGTTCTAACCTGTTGCCT (site TCGGCGACTAG) | 0.27
TCAGCGACTTGGGTTCTAACCTGTTGCCT (site TCTGCGACTAG) | 0.39
TCAGGAGCTTGGGTTCTAACCTGTTGCTA (site CATATGACTAG) | 0.288
TCAGGAGCTTGGGTTCTAACCTGTTGCTA (site TCAGGAGCTTA) | 0.325
TCATAGCCTTGGGTTCTAACCTGTTGCTG (site TCAAAGCCTCA) | 0.131
TCATAGCCTTGGGTTCTAACCTGTTGCTG (site TCACAGCCTCA) | 0.0283
TCATAGCCTTGGGTTCTAACCTGTTGCTG (site TCAGAGCCTCA) | 0.087
TCATAGCCTTGGGTTCTAACCTGTTGCTG (site TCATAGCCTCA) | 0.62
TCATATTCTTGGGTTCTAACCTGTTGCCT (site TCAAATTCTAG) | 0.17
TCATATTCTTGGGTTCTAACCTGTTGCCT (site TCACATTCTAG) | 0.0604
TCATATTCTTGGGTTCTAACCTGTTGCCT (site TCAGATTCTAG) | 0.069
TCATATTCTTGGGTTCTAACCTGTTGCCT (site TCATATTCTAG) | 0.0782
TCATGAACTTGGGTTCTAACCTGTTGCCT (site TCATGAACTAG) | 0.256
TCATGAACTTGGGTTCTAACCTGTTGCCT (site TTATGATCTAG) | 0.0186
TCATTAGCTTGGGTTCTAACCTGTTGCCG (site GGGCATCCTAT) | 0.0935
TCATTAGCTTGGGTTCTAACCTGTTGCCG (site TCATTAGCTCG) | 0.315
TCATTCGCTTGGGTTCTAACCTGTTGCCT (site TCATTCGCTAG) | 0.857
TCATTCGCTTGGGTTCTAACCTGTTGCCT (site TCCTTAGCTAG) | 0.186
TCCAAACCTTGGGTTCTAACCTGTTGCGG (site TCCAAACCTCC) | 2.04

Sequence | recombinant barcode read abundance (log10)
TCCAAACCTTGGGTTCTAACCTGTTGCGG (site TCCAACACTCC) | 0.00629
TCCAGTCCTTGGGTTCTAACCTGTTGCTA (site TCCAGTCCTTA) | 0.688
TCCAGTCCTTGGGTTCTAACCTGTTGCTA (site TCCATCCCTTA) | 0.0632
TCCCAAACTTGGGTTCTAACCTGTTGCAC (site CTAACTGCTAC) | 0.0667
TCCCAAACTTGGGTTCTAACCTGTTGCAC (site TCCCAAACTGT) | 0.657
TCCCACACTTGGGTTCTAACCTGTTGCCA (site ACCCACACTCG) | 0.129
TCCCACACTTGGGTTCTAACCTGTTGCCA (site TCCCACACTTG) | 1.33
TCCCAGCCTTGGGTTCTAACCTGTTGCTG (site TCCCAGCCTCA) | 0.0849
TCCCAGCCTTGGGTTCTAACCTGTTGCTG (site TCCCATCCTAA) | 0.274
TCCCATCCTTGGGTTCTAACCTGTTGCTT (site TCCCAGCCTCA) | 0.524
TCCCATCCTTGGGTTCTAACCTGTTGCTT (site TCCCATCCTAA) | 0.114
TCCCATGCTTGGGTTCTAACCTGTTGCCT (site TCCCATACTAG) | 0.19
TCCCATGCTTGGGTTCTAACCTGTTGCCT (site TCCCATCCTAG) | 0.151
TCCCATGCTTGGGTTCTAACCTGTTGCCT (site TCCCATGCTAG) | 1.17
TCCCATGCTTGGGTTCTAACCTGTTGCCT (site TCCCATTCTAG) | 0.0569
TCCCCGACTTGGGTTCTAACCTGTTGCCG (site TCCCCGACTCG) | 1.03
TCCCCGACTTGGGTTCTAACCTGTTGCCG (site TCGCCTACTCG) | 0.03
TCCCCGGCTTGGGTTCTAACCTGTTGCGG (site CAAAACTCTAA) | 0.262
TCCCCGGCTTGGGTTCTAACCTGTTGCGG (site TCCCCGGCTCC) | 1.48
TCCCGATCTTGGGTTCTAACCTGTTGCCT (site TCCCGAACTAG) | 0.0997
TCCCGATCTTGGGTTCTAACCTGTTGCCT (site TCCCGACCTAG) | 0.521
TCCCGATCTTGGGTTCTAACCTGTTGCCT (site TCCCGAGCTAG) | 0.065
TCCCGATCTTGGGTTCTAACCTGTTGCCT (site TCCCGATCTAG) | 0.502
TCCCTTCCTTGGGTTCTAACCTGTTGCCT (site TCCCGTCCTAG) | 0.0443
TCCCTTCCTTGGGTTCTAACCTGTTGCCT (site TCCCTTCCTAG) | 0.365
